Assay results: ChEMBL document CHEMBL5537157, “Selective Antitumor Effect and Lower Toxicity of Mitochondrion-Targeting Derivatization of Triptolide” (J Med Chem, 2024)
Calls of active or inactive are those of the source. The rule behind the calls is not given here.

Experiments:
A549 [1] = test: Cytotoxicity against human A549 cells assessed as inhibition of cell viability incubated for 48 hrs by MTT assay; type: functional, cell-based; settings: A549, 48 h
MCF7 [2] = test: Cytotoxicity against human MCF7 cells assessed as inhibition of cell viability incubated for 48 hrs by MTT assay; type: functional, cell-based; settings: MCF7, 48 h
NCI-H460 [3] = test: Cytotoxicity against human NCI-H460 cells assessed as inhibition of cell viability incubated for 48 hrs by MTT assay; type: functional, cell-based; settings: NCI-H460, 48 h
NCI-H1975 [4] = test: Cytotoxicity against human NCI-H1975 cells assessed as inhibition of cell viability incubated for 48 hrs by MTT assay; type: functional, cell-based; settings: NCI-H1975, 48 h
[5] = Cytotoxicity against human BEAS-2B cells assessed as inhibition of cell viability incubated for 48 hrs by MTT assay; type: toxicity, cell-based
NCI-H1975 [6] = test: Inhibition of cell viability in human NCI-H1975 cells assessed as effect on cell index at 80 nM by real-time cell analysis; type: functional, cell-based
[7] = Drug accumulation in mitochondria of human NCI-H1975 cells at 120 nM incubated for 5 hrs by Red CMXRos probe based analysis; type: ADME; settings: nci-h1975, 5 h, 0.12 µM
NCI-H1975 [8] = test: Cytotoxicity against human NCI-H1975 cells assessed as cell growth inhibition incubated for 48 hrs by MTT assay relative to control; type: functional
A549 [9] = test: Cytotoxicity against human A549 cells assessed as cell growth inhibition incubated for 48 hrs by MTT assay; type: functional, cell-based
NCI-H460 [10] = test: Cytotoxicity against human NCI-H460 cells assessed as cell growth inhibition incubated for 48 hrs by MTT assay; type: functional, cell-based
NCI-H1975 [11] = test: Cytotoxicity against human NCI-H1975 cells assessed as cell growth inhibition incubated for 48 hrs by MTT assay; type: functional, cell-based
BEAS-2B = test: Cytotoxicity against human BEAS-2B cells assessed as cell growth inhibition incubated for 48 hrs by MTT assay; type: toxicity, cell-based
MCF7 [12] = test: Cytotoxicity against human MCF7 cells assessed as cell growth inhibition incubated for 48 hrs by MTT assay; type: functional, cell-based

| Drug uptake [7] | Structure (SMILES) | IC50 (A549 [1]) | IC50 (MCF7 [2]) | IC50 (NCI-H460 [3]) | IC50 (NCI-H1975 [4]) | IC50 at 48 h [5] | inhibition (NCI-H1975 [6]) | Imax (NCI-H1975 [8]) | inhibition (A549 [9]) | inhibition (NCI-H460 [10]) | inhibition (NCI-H1975 [11]) | inhibition (INH) (BEAS-2B) | inhibition (MCF7 [12]) |
| --- | --- | --- | --- | --- | --- | --- | --- | --- | --- | --- | --- | --- | --- |
| – | CC(C)[C@]12O[C@H]1[C@@H]1O[C@]13[C@]1(O[C@H]1C[C@H]1C4=C(CC[C@@]13C)C(=O)OC4)[C@]2(O)COC(=O)CCCCCCCC[P+](c1ccccc1)(c1ccccc1)c1ccccc1 | 21.7 µM | 20.9 µM | 27.7 µM | 24.7 µM | 23.4 µM | – | – | – | – | – | – | – |
| – | CC(C)[C@]12O[C@H]1[C@@H]1O[C@]13[C@]1(O[C@H]1C[C@H]1C4=C(CC[C@@]13C)C(=O)OC4)[C@@H]2OC(=O)CCCCCC[n+]1ccc(/C=C/c2c[nH]c3ccccc23)cc1 | 47.8 µM | – | 11.9 µM | 0.27 µM | 27.9 µM | – | – | – | – | – | – | – |
| – | CC(C)[C@]12O[C@H]1[C@@H]1O[C@]13[C@]1(O[C@H]1C[C@H]1C4=C(CC[C@@]13C)C(=O)OC4)[C@]2(O)COC(=O)CCCCCCCCC[P+](c1ccccc1)(c1ccccc1)c1ccccc1 | 23 µM | 30.2 µM | 26.7 µM | 18.6 µM | 23.6 µM | – | – | – | – | – | – | – |
| – | CC(C)[C@]12O[C@H]1[C@@H]1O[C@]13[C@]1(O[C@H]1C[C@H]1C4=C(CC[C@@]13C)C(=O)OC4)[C@@H]2OC(=O)CCCCCCCCCC[n+]1ccc(/C=C/c2c[nH]c3ccccc23)cc1 | > 50 µM | 5.26 µM | – | 0.34 µM | 12.7 µM | – | – | – | – | – | – | – |
| – | C1=CCC(P(c2ccccc2)c2ccccc2)C=C1 (stereo not given) | > 100 µM | > 100 µM | > 100 µM | > 100 µM | > 100 µM | – | – | – | – | – | – | – |
| – | CC(C)[C@]12O[C@H]1[C@@H]1O[C@]13[C@]1(O[C@H]1C[C@H]1C4=C(CC[C@@]13C)C(=O)OC4)[C@]2(O)COC(=O)CCCCC[P+](c1ccccc1)(c1ccccc1)c1ccccc1 | > 100 µM | > 50 µM | > 50 µM | > 100 µM | > 50 µM | – | – | – | – | – | – | – |
| – | C[n+]1ccc(/C=C/c2c[nH]c3ccccc23)cc1 | > 100 µM | > 100 µM | > 50 µM | > 50 µM | > 100 µM | – | – | – | – | – | – | – |
| Active | CC(C)[C@]12O[C@H]1[C@@H]1O[C@]13[C@]1(O[C@H]1C[C@H]1C4=C(CC[C@@]13C)C(=O)OC4)[C@@H]2OC(=O)CCCCCCC[n+]1ccc(/C=C/c2c[nH]c3ccccc23)cc1.[Br-] | > 50 µM | 7.09 µM | 17.5 µM | 0.4 µM | 48.8 µM | Active | – | – | – | – | – | – |
| – | CC(C)[C@]12O[C@H]1[C@@H]1O[C@]13[C@]1(O[C@H]1C[C@H]1C4=C(CC[C@@]13C)C(=O)OC4)[C@]2(O)COC(=O)CCCCCCC[P+](c1ccccc1)(c1ccccc1)c1ccccc1 | 27.3 µM | > 100 µM | 29.9 µM | 24.9 µM | 21.7 µM | – | – | – | – | – | – | – |
| – | COc1cccc2c1C(=O)c1c(O)c3c(c(O)c1C2=O)C[C@@](O)(C(=O)CO)C[C@@H]3O[C@H]1C[C@H](N)[C@H](O)[C@H](C)O1 [DOXORUBICIN] | 2.54 µM | – | 0.581 µM | 2.64 µM | 42 µM | – | – | – | – | – | – | – |
| – | CC(C)[C@]12O[C@H]1[C@@H]1O[C@]13[C@]1(O[C@H]1C[C@H]1C4=C(CC[C@@]13C)C(=O)OC4)[C@@H]2OC(=O)CCCCCCCCC[n+]1ccc(/C=C/c2c[nH]c3ccccc23)cc1 | 24.9 µM | 6.24 µM | 5.09 µM | 0.44 µM | 11.9 µM | – | – | – | – | – | – | – |
| – | CC(C)[C@]12O[C@H]1[C@@H]1O[C@]13[C@]1(O[C@H]1C[C@H]1C4=C(CC[C@@]13C)C(=O)OC4)[C@]2(O)COC(=O)CCCCCC[P+](c1ccccc1)(c1ccccc1)c1ccccc1 | 38.4 µM | > 50 µM | > 50 µM | > 30 µM | > 30 µM | – | – | – | – | – | – | – |
| – | CC(C)[C@]12O[C@H]1[C@@H]1O[C@]13[C@]1(O[C@H]1C[C@H]1C4=C(CC[C@@]13C)C(=O)OC4)[C@@H]2OC(=O)CCCCC[P+](c1ccccc1)(c1ccccc1)c1ccccc1.[Br-] | > 10 µM | > 10 µM | > 10 µM | 0.14 µM | > 10 µM | – | ~65% | Dose-Dependent Effect | Dose-Dependent Effect | Dose-Dependent Effect | Dose-Dependent Effect | Dose-Dependent Effect |
| – | CC(C)[C@]12O[C@H]1[C@@H]1O[C@]13[C@]1(O[C@H]1C[C@H]1C4=C(CC[C@@]13C)C(=O)OC4)[C@]2(O)COC(=O)CCCC[P+](c1ccccc1)(c1ccccc1)c1ccccc1 | > 100 µM | > 100 µM | > 100 µM | > 100 µM | > 100 µM | – | – | – | – | – | – | – |
| – | CC(C)[C@]12O[C@H]1[C@@H]1O[C@]13[C@]1(O[C@H]1C[C@H]1C4=C(CC[C@@]13C)C(=O)OC4)[C@]2(O)CO | > 100 µM | > 100 µM | > 50 µM | > 100 µM | > 100 µM | – | – | – | – | – | – | – |
| – | CC(C)[C@]12O[C@H]1[C@@H]1O[C@]13[C@]1(O[C@H]1C[C@H]1C4=C(CC[C@@]13C)C(=O)OC4)[C@@H]2OC(=O)CCCCC[n+]1ccc(/C=C/c2c[nH]c3ccccc23)cc1 | > 50 µM | 16.7 µM | 3.12 µM | 2.86 µM | 94.3 µM | – | – | – | – | – | – | – |
| – | CC(C)[C@]12O[C@H]1[C@@H]1O[C@]13[C@]1(O[C@H]1C[C@H]1C4=C(CC[C@@]13C)C(=O)OC4)[C@@H]2OC(=O)CCCC[n+]1ccc(/C=C/c2c[nH]c3ccccc23)cc1 | > 50 µM | 47.2 µM | > 50 µM | 5.74 µM | 35.7 µM | – | – | – | – | – | – | – |
| – | CC(C)[C@]12O[C@H]1[C@@H]1O[C@]13[C@]1(O[C@H]1C[C@H]1C4=C(CC[C@@]13C)C(=O)OC4)[C@]2(O)C=O | > 100 µM | > 100 µM | > 50 µM | > 50 µM | > 100 µM | – | – | – | – | – | – | – |
